Measured values from the Kinase Knowledgebase extract (Sharma et al. 2016).

The compounds below were run against MAPK14 (human) (UniProt Q16539) (assay: Inhibition of MAPK14 Kinase Activity).
MAPK14 (human), sequence (Q16539 whole entry, looked up): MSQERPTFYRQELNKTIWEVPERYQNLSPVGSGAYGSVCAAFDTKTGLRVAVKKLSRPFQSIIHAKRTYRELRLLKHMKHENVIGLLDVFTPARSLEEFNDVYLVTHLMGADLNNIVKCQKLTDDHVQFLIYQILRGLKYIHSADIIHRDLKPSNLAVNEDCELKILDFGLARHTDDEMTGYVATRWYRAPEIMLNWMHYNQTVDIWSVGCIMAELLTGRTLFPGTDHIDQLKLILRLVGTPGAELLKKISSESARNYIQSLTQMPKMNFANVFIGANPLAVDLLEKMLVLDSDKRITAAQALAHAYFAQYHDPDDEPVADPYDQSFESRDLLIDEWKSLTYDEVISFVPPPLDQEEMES

Row | IC50 [µM] | Structure (SMILES)
1 | < 10 | CCC(CC)n1c(=O)ccc2c(-c3ccccc3Cl)nc(NCCO)nc21
2 | < 10 | COc1nc(-c2ccccc2F)c2ccc(=O)n(-c3c(F)cccc3F)c2n1
3 | < 10 | CCNC(=O)CNc1nc(-c2ccc(F)cc2C)c2ccc(=O)n(-c3c(F)cccc3F)c2n1
4 | < 10 | Cc1cc(F)ccc1-c1nc(NC(C)(C)CO)nc2c1ccc(=O)n2-c1ccccc1C
5 | < 10 | Cc1cc(F)ccc1-c1nc(NCCCN2CCCC2=O)nc2c1ccc(=O)n2-c1c(F)cccc1F
6 | < 10 | Cc1cc(F)ccc1-c1nc(Nc2nnn[nH]2)nc2c1ccc(=O)n2-c1c(F)cccc1F
7 | < 10 | Cc1cc(F)ccc1-c1nc(NCC(C)(C)C)nc2c1ccc(=O)n2-c1ccccc1F
8 | < 10 | Cc1cc(F)ccc1-c1nc(NC[C@H](C)O)nc2c1ccc(=O)n2-c1ccccc1C
9 | < 10 | CSc1nc(-c2ccc(F)cc2C)c2ccc(=O)n(-c3ccccc3F)c2n1
10 | < 10 | CSc1nc(-c2ccc(F)cc2C)c2c(n1)N(c1c(F)cccc1F)C(=O)CC2
11 | < 10 | CCn1c(=O)ccc2c(-c3ccccc3F)nc(SC)nc21
12 | < 10 | Cc1cc(F)ccc1-c1nc(Nc2nc[nH]n2)nc2c1ccc(=O)n2-c1c(F)cccc1F
13 | < 10 | Cc1cc(F)ccc1-c1nc(N2CCOCC2)nc2c1ccc(=O)n2-c1ccccc1C
14 | < 10 | Cc1cc(F)ccc1-c1nc(NC2CCOCC2)nc2c1ccc(=O)n2-c1c(F)cccc1F
15 | < 10 | CS(=O)(=O)Nc1nc(-c2ccccc2F)c2ccc(=O)n(-c3c(F)cccc3F)c2n1
16 | < 10 | COc1nc(-c2ccccc2F)c2ccc(=O)n(-c3ccccc3Cl)c2n1
17 | < 10 | Cc1cc(F)ccc1-c1nc(NCC(=O)N2CCOCC2)nc2c1ccc(=O)n2-c1c(F)cccc1F
18 | < 10 | Cc1cc(F)ccc1-c1nc(S(C)(=O)=O)nc2c1ccc(=O)n2-c1c(C)cccc1C
19 | < 10 | Cc1cc(F)ccc1-c1nc(N(C(=O)C2CC2)C(=O)C2CC2)nc2c1ccc(=O)n2-c1c(F)cccc1F
20 | < 10 | Cc1cc(F)ccc1-c1nc(N(C)S(C)(=O)=O)nc2c1ccc(=O)n2-c1c(F)cccc1F
21 | < 10 | CN1CCC(Nc2nc(-c3ccccc3Cl)c3ccc(=O)n(-c4ccccc4Cl)c3n2)CC1
22 | < 10 | CSc1nc(-c2ccc(F)cc2C)c2ccc(=O)n(C3CC3)c2n1
23 | < 10 | CCC(CC)n1c(=O)ccc2c(-c3ccccc3Cl)nc(NCCN(CC)CC)nc21
24 | < 10 | CCC(CC)n1c(=O)ccc2c(-c3ccc(F)cc3C)nc(OC)nc21
25 | < 10 | Cc1cc(F)ccc1-c1nc(NC(C)(CO)CO)nc2c1ccc(=O)n2-c1ccccc1C

Row | IC50 [µM] | Structure (SMILES)
26 | < 10 | Cc1cc(F)ccc1-c1nc(NCCNS(C)(=O)=O)nc2c1ccc(=O)n2-c1c(F)cccc1F
27 | < 10 | Cc1cc(F)ccc1-c1nc(NCC(=O)N2CCCC2)nc2c1ccc(=O)n2-c1c(F)cccc1F
28 | < 10 | CCC(CC)n1c(=O)ccc2c(-c3ccccc3Cl)nc(NC(CO)CO)nc21
29 | < 10 | CNc1nc(-c2ccc(F)cc2C)c2ccc(=O)n(-c3c(F)cccc3F)c2n1
30 | < 10 | CS(=O)(=O)Nc1nc(-c2ccccc2F)c2ccc(=O)n(-c3ccccc3F)c2n1
31 | < 10 | Cc1cc(F)ccc1-c1nc(N[C@@H]2CCC[C@@H]2C(N)=O)nc2c1ccc(=O)n2-c1c(F)cccc1F
32 | < 10 | Cc1cc(F)ccc1-c1nc(NCCNC(=O)Nc2cccc(F)c2)nc2c1ccc(=O)n2-c1c(F)cccc1F
33 | < 10 | Cc1cc(F)ccc1-c1nc(NC(CO)CO)nc2c1ccc(=O)n2CC1CC1
34 | < 10 | Cc1cc(F)ccc1-c1nc(NC[C@H](C)O)nc2c1ccc(=O)n2-c1ccccc1F
35 | < 10 | Cc1cc(F)ccc1-c1nc(Nc2c[nH]c(=O)[nH]c2=O)nc2c1ccc(=O)n2-c1c(F)cccc1F
36 | < 10 | Cc1cc(F)ccc1-c1nc(NC[C@@H](C)O)nc2c1ccc(=O)n2-c1ccccc1F
37 | < 10 | CCC(CC)n1c(=O)ccc2c(-c3ccccc3Cl)nc(NCCN)nc21
38 | < 10 | Cc1cc(F)ccc1-c1nc(NC[C@H](C)O)nc2c1ccc(=O)n2-c1c(F)cccc1F
39 | < 10 | Cc1cc(F)ccc1-c1nc(NCCO)nc2c1ccc(=O)n2-c1ccccc1C
40 | < 10 | Cc1cc(F)ccc1-c1nc(NCCNC(=O)Nc2ccccc2)nc2c1ccc(=O)n2-c1c(F)cccc1F
41 | < 10 | Cc1cc(F)ccc1-c1nc(NC2CCC(O)CC2)nc2c1ccc(=O)n2-c1ccccc1F (stereo not drawn)
42 | < 10 | CSc1nc(-c2ccccc2F)c2ccc(=O)n(-c3c(F)cccc3F)c2n1
43 | < 10 | CSc1nc(-c2ccccc2F)c2ccc(=O)n(-c3ccccc3Cl)c2n1
44 | < 10 | CSc1nc(-c2ccc(F)cc2C)c2ccc(=O)n(CC3CC3)c2n1
45 | < 10 | Cc1cc(F)ccc1-c1nc(NCCO)nc2c1ccc(=O)n2-c1c(C)cccc1C
46 | < 10 | Cc1cc(F)ccc1-c1nc(N[C@H](C)CO)nc2c1ccc(=O)n2-c1c(F)cccc1F
47 | < 10 | Cc1cc(F)ccc1-c1nc(NCCNC(=O)CNC(=O)OC(C)(C)C)nc2c1ccc(=O)n2-c1c(F)cccc1F
48 | < 10 | Cc1cc(F)ccc1-c1nc(OC(CO)CO)nc2c1ccc(=O)n2-c1c(F)cccc1F
49 | < 10 | O=c1ccc2c(-c3ccccc3Cl)nc(NCCO)nc2n1-c1ccccc1Cl
50 | < 10 | Cc1cc(F)ccc1-c1nc(NC[C@@H](C)O)nc2c1ccc(=O)n2C1CCCCC1

Row | IC50 [µM] | Structure (SMILES)
51 | < 10 | CCOC(=O)CNc1nc(-c2ccccc2Cl)c2ccc(=O)n(C(CC)CC)c2n1
52 | < 10 | CSCCCOc1nc(-c2ccc(F)cc2C)c2ccc(=O)n(-c3c(F)cccc3F)c2n1
53 | < 10 | CSc1nc(-c2ccccc2)c2ccc(=O)n(-c3ccccc3)c2n1
54 | < 10 | Cc1cc(F)ccc1-c1nc(NCC(=O)NCCO)nc2c1ccc(=O)n2-c1c(F)cccc1F
55 | < 10 | Cc1cc(F)ccc1-c1nc(NCCC#N)nc2c1ccc(=O)n2-c1c(F)cccc1F
56 | < 10 | CSc1nc(-c2ccccc2F)c2ccc(=O)n(C)c2n1
57 | < 10 | CCC(C)n1c(=O)ccc2c(-c3ccc(F)cc3C)nc(NC(CO)CO)nc21 (stereo not drawn)
58 | < 10 | COC(=O)CNc1nc(-c2ccc(F)cc2C)c2ccc(=O)n(-c3c(F)cccc3F)c2n1
59 | < 10 | Cc1cc(F)ccc1-c1nc(NCCNC(=O)C(C)(C)C)nc2c1ccc(=O)n2-c1c(F)cccc1F
60 | < 10 | Cc1cc(F)ccc1-c1nc(NCC(=O)O)nc2c1ccc(=O)n2-c1c(F)cccc1F
61 | < 10 | O=c1ccc2c(-c3ccccc3F)nc(NC(CO)CO)nc2n1-c1ccccc1F
62 | < 10 | CCNc1nc(-c2ccc(F)cc2C)c2ccc(=O)n(-c3c(F)cccc3F)c2n1
63 | < 10 | Cc1cc(F)ccc1-c1nc(NC2CCOC2)nc2c1ccc(=O)n2-c1c(F)cccc1F (stereo not drawn)
64 | < 10 | CSc1nc(-c2ccccc2F)c2ccc(=O)n(CC3CC3)c2n1
65 | < 10 | CCOC(=O)CNc1nc(-c2ccccc2Cl)c2ccc(=O)n(-c3ccccc3Cl)c2n1
66 | < 10 | CCC(C)n1c(=O)ccc2c(-c3ccc(F)cc3C)nc(SC)nc21 (stereo not drawn)
67 | < 10 | Cc1cc(F)ccc1-c1nc(N[C@H]2CCC[C@@H]2O)nc2c1ccc(=O)n2-c1c(F)cccc1F
68 | < 10 | Cc1cc(F)ccc1-c1nc(NC2CCCCC2)nc2c1ccc(=O)n2-c1ccccc1F
69 | < 10 | Cc1cc(F)ccc1-c1nc(N[C@@H](C)CO)nc2c1ccc(=O)n2-c1ccccc1F
70 | < 10 | Cc1cc(F)ccc1-c1nc(NCCc2noc(=O)[nH]2)nc2c1ccc(=O)n2-c1c(F)cccc1F
71 | < 10 | Cc1nnc(CNc2nc(-c3ccc(F)cc3C)c3ccc(=O)n(-c4c(F)cccc4F)c3n2)[nH]1
72 | < 10 | Cc1cc(F)ccc1-c1nc(NCC(C)(C)O)nc2c1ccc(=O)n2C1CCCCC1
73 | < 10 | Cc1cc(F)ccc1-c1nc(N[C@H]2CC[C@H](O)CC2)nc2c1ccc(=O)n2-c1ccccc1C
74 | < 10 | CCOC(=O)NCCNc1nc(-c2ccc(F)cc2C)c2ccc(=O)n(-c3c(F)cccc3F)c2n1
75 | < 10 | CS(=O)(=O)c1nc(-c2ccccc2)c2ccc(=O)n(-c3ccccc3)c2n1

Row | IC50 [µM] | Structure (SMILES)
76 | < 10 | Cc1cc(F)ccc1-c1nc(N[C@@H](C)CO)nc2c1ccc(=O)n2-c1c(F)cccc1F
77 | < 10 | Cc1cc(F)ccc1-c1nc(NC(C)(C)CO)nc2c1ccc(=O)n2-c1c(F)cccc1F
78 | < 10 | Cc1cc(F)ccc1-c1nc(NS(C)(=O)=O)nc2c1ccc(=O)n2-c1c(F)cccc1F
79 | < 10 | CSc1nc(-c2ccccc2F)c2ccc(=O)[nH]c2n1
80 | < 10 | O=c1ccc2c(-c3ccccc3Cl)nc(NC(CO)CO)nc2n1-c1ccccc1Cl
81 | < 10 | Cc1cc(F)ccc1-c1nc(NCCO)nc2c1ccc(=O)n2-c1c(F)cccc1F
82 | < 10 | Cc1cc(F)ccc1-c1nc(NC[C@H](O)c2ccccc2)nc2c1ccc(=O)n2-c1c(F)cccc1F
83 | < 10 | CSc1nc(-c2ccccc2F)c2ccc(=O)n(C(C)C)c2n1
84 | < 10 | CCONc1nc(-c2ccc(F)cc2C)c2ccc(=O)n(-c3ccccc3F)c2n1
85 | < 10 | CNC(=O)NCCNc1nc(-c2ccc(F)cc2C)c2ccc(=O)n(-c3c(F)cccc3F)c2n1
86 | < 10 | Cc1cc(F)ccc1-c1nc(NCCN)nc2c1ccc(=O)n2-c1c(F)cccc1F
87 | < 10 | Cc1cc(F)ccc1-c1nc(N[C@H]2CCCC[C@@H]2O)nc2c1ccc(=O)n2-c1c(F)cccc1F
88 | < 10 | CCN(CC)CCNc1nc(-c2ccc(F)cc2C)c2ccc(=O)n(-c3c(F)cccc3F)c2n1
89 | < 10 | O=C(O)CNc1nc(-c2ccccc2Cl)c2ccc(=O)n(-c3ccccc3Cl)c2n1
90 | < 10 | COCCNC(=O)CNc1nc(-c2ccc(F)cc2C)c2ccc(=O)n(-c3c(F)cccc3F)c2n1
91 | < 10 | Cc1cc(F)ccc1-c1nc(OCCN(C)S(C)(=O)=O)nc2c1ccc(=O)n2-c1c(F)cccc1F
92 | < 10 | Cc1cc(F)ccc1-c1nc(S(C)(=O)=O)nc2c1ccc(=O)n2C1CCCCC1
93 | < 10 | Cc1cc(F)ccc1-c1nc(N[C@@H](C)CO)nc2c1ccc(=O)n2-c1ccccc1C
94 | < 10 | Cc1cc(F)ccc1-c1nc(NCCNC(=O)c2ccccc2)nc2c1ccc(=O)n2-c1c(F)cccc1F
95 | < 10 | Cc1cc(F)ccc1-c1nc(NC(CO)(CO)CO)nc2c1ccc(=O)n2-c1c(F)cccc1F
96 | < 10 | COc1nc(-c2ccccc2Cl)c2ccc(=O)n(-c3ccccc3Cl)c2n1
97 | < 10 | CC(=O)NCCOc1nc(-c2ccc(F)cc2C)c2ccc(=O)n(-c3c(F)cccc3F)c2n1
98 | < 10 | Cc1cc(F)ccc1-c1nc(NCc2ncc[nH]2)nc2c1ccc(=O)n2-c1c(F)cccc1F
